# Results taken from publication PMC10893631, “Receptor-based pharmacophore modeling, molecular docking, synthesis and biological evaluation of novel VEGFR-2, FGFR-1, and BRAF multi-kinase inhibitors” (BMC Chemistry, 2024).
# Key:
# Assay in all cases: NCI SRB growth inhibition (single dose 10 µM / five-dose)
# Type in all cases: cell-based, human
# [1] = tested on: A549/ATCC; conditions: Homo sapiens; for inhibition at 10 µM: A549/ATCC (Non-small cell lung cancer), read-out: GI%; for GI50: A549/ATCC, Non-small cell lung cancer, five-dose
# Experimental: (§1) Screening of cytotoxic activity against a panel of sixty human tumor cell lines The selected compounds by NCI were evaluated for their anticancer activity in a two- stage process. […] Then, the output from the single dose screen is reported as a mean graph. […] Assay protocol. […] For a typical screening experiment, cells are inoculated into 96 well microtiter plates in 100 µL at plating densities ranging from 5000 to 40,000 cells/well depending on the doubling time of individual cell lines. […] After 24 h, two plates of each cell line are fixed in situ with TCA, to represent a measurement of the cell population for each cell line at the time of drug addition (Tz). The experimental drugs are solubilized in dimethyl sulfoxide at 400-fold the desired final maximum test concentration and stored frozen prior to use. At the time of drug addition, an aliquot of frozen concentrate is thawed and diluted to twice the desired final maximum test concentration with complete medium containing 50 µg/mL gentamicin. Additional four, 10-fold or ½ log serial dilutions are made to provide a total of five drug concentrations plus control. Aliquots of 100 mL of these different drug dilutions are added to the appropriate microtiter wells already containing […] of medium, resulting in the required final drug concentrations. […] For adherent cells, the assay is terminated by the addition of cold TCA. […] The supernatant is discarded, and the plates are washed five times with tap water and air dried. Sulforhodamine B (SRB) solution ([…]) at 0.4% (w/v) in 1% acetic acid is added to each well, and plates are incubated for 10 min at room temperature. After staining, unbound dye is removed by washing five times with 1% acetic acid and the plates are air dried. […] Using the seven absorbance measurements [time zero, (Tz), control growth, (C), and test growth in the presence of drug at the five concentration levels (Ti)], the percentage growth is calculated at each of the drug concentrations levels. Percentage growth inhibition is calculated as: [(Ti Tz)/(C–Tz)] x 100 for concentrations for which Ti>/=Tz and [(Ti-Tz)/Tz] x 100 for concentrations for which Ti < Tz. Three dose response parameters are calculated for each experimental agent. […] The drug concentration resulting in total growth inhibition (TGI) is calculated from Ti = Tz. […] Values are calculated for each of these three parameters if the level of activity is reached; however, if the effect is not reached or is exceeded, the value for that parameter is expressed as greater or less than the maximum or minimum concentration tested.
# [2] = tested on: ACHN; conditions: Homo sapiens; for inhibition at 10 µM: ACHN (Renal cancer), read-out: GI%; for GI50: ACHN, Renal cancer, five-dose
# Experimental: as §1
# [3] = tested on: BT-549; conditions: Homo sapiens; for inhibition at 10 µM: BT-549 (Breast cancer), read-out: GI%; for GI50: BT-549, Breast cancer, five-dose
# Experimental: as §1
# [4] = tested on: CAKI-1; conditions: Homo sapiens; for inhibition at 10 µM: CAKI-1 (Renal cancer), read-out: GI%; for GI50: CAKI-1, Renal cancer, five-dose
# Experimental: as §1
# [5] = tested on: CCRF-CEM; conditions: Homo sapiens; for inhibition at 10 µM: CCRF-CEM (Leukemia), read-out: GI%; for GI50: CCRF-CEM, Leukemia, five-dose
# Experimental: as §1
# [6] = tested on: COLO 205; conditions: Homo sapiens; for GI50: COLO 205, Colon cancer, five-dose; for inhibition at 10 µM: COLO 205 (Colon cancer), read-out: GI%
# Experimental: as §1
# [7] = tested on: DU-145; conditions: Homo sapiens; for inhibition at 10 µM: DU-145 (Prostate cancer), read-out: GI%; for GI50: DU-145, Prostate cancer, five-dose
# Experimental: as §1
# [8] = tested on: EKVX; conditions: Homo sapiens; for inhibition at 10 µM: EKVX (Non-small cell lung cancer), read-out: GI%; for GI50: EKVX, Non-small cell lung cancer, five-dose
# Experimental: as §1
# [9] = tested on: HT29; conditions: Homo sapiens, HT-29; for inhibition at 10 µM: HT29 (Colon cancer), read-out: GI%; for GI50: HT29, Colon cancer, five-dose
# Experimental: as §1
# [10] = tested on: IGROV1; conditions: Homo sapiens, IGROV-1; for inhibition at 10 µM: IGROV1 (Ovarian cancer), read-out: GI%; for GI50: IGROV1, Ovarian cancer, five-dose
# Experimental: as §1
# [11] = tested on: K-562; conditions: Homo sapiens, K562; for inhibition at 10 µM: K-562 (Leukemia), read-out: GI%; for GI50: K-562, Leukemia, five-dose
# Experimental: as §1
# [12] = tested on: LOX IMVI; conditions: Homo sapiens; for inhibition at 10 µM: LOX IMVI (Melanoma), read-out: GI%; for GI50: LOX IMVI, Melanoma, five-dose
# Experimental: as §1
# [13] = tested on: M14; conditions: Homo sapiens; for inhibition at 10 µM: M14 (Melanoma), read-out: GI%; for GI50: M14, Melanoma, five-dose
# Experimental: as §1
# [14] = tested on: MDA-MB-435; conditions: Homo sapiens; for inhibition at 10 µM: MDA-MB-435 (Melanoma), read-out: GI%; for GI50: MDA-MB-435, Melanoma, five-dose
# Experimental: as §1
# [15] = tested on: NCI-H322M; conditions: Homo sapiens; for inhibition at 10 µM: NCI-H322M (Non-small cell lung cancer), read-out: GI%; for GI50: NCI-H322M, Non-small cell lung cancer, five-dose
# Experimental: as §1
# [16] = tested on: NCI-H460; conditions: Homo sapiens; for inhibition at 10 µM: NCI-H460 (Non-small cell lung cancer), read-out: GI%; for GI50: NCI-H460, Non-small cell lung cancer, five-dose
# Experimental: as §1
# [17] = tested on: NCI-H522; conditions: Homo sapiens; for inhibition at 10 µM: NCI-H522 (Non-small cell lung cancer), read-out: GI%; for GI50: NCI-H522, Non-small cell lung cancer, five-dose
# Experimental: as §1
# [18] = tested on: NCI/ADR-RES; conditions: Homo sapiens; for inhibition at 10 µM: NCI/ADR-RES (Ovarian cancer), read-out: GI%; for GI50: NCI/ADR-RES, Ovarian cancer, five-dose
# Experimental: as §1
# [19] = tested on: OVCAR-3; conditions: Homo sapiens; for inhibition at 10 µM: OVCAR-3 (Ovarian cancer), read-out: GI%; for GI50: OVCAR-3, Ovarian cancer, five-dose
# Experimental: as §1
# [20] = tested on: OVCAR-4; conditions: Homo sapiens; for inhibition at 10 µM: OVCAR-4 (Ovarian cancer), read-out: GI%; for GI50: OVCAR-4, Ovarian cancer, five-dose
# Experimental: as §1
# [21] = tested on: OVCAR-8; conditions: Homo sapiens; for inhibition at 10 µM: OVCAR-8 (Ovarian cancer), read-out: GI%; for GI50: OVCAR-8, Ovarian cancer, five-dose
# Experimental: as §1
# [22] = tested on: SF-295; conditions: Homo sapiens; for inhibition at 10 µM: SF-295 (CNS cancer), read-out: GI%; for GI50: SF-295, CNS cancer, five-dose
# Experimental: as §1
# [23] = tested on: SK-MEL-2; conditions: Homo sapiens; for inhibition at 10 µM: SK-MEL-2 (Melanoma), read-out: GI%; for GI50: SK-MEL-2, Melanoma, five-dose
# Experimental: as §1
# [24] = tested on: SK-OV-3; conditions: Homo sapiens; for GI50: SK-OV-3, Ovarian cancer, five-dose; for inhibition at 10 µM: SK-OV-3 (Ovarian cancer), read-out: GI%
# Experimental: as §1
# [25] = tested on: SN12C; conditions: Homo sapiens; for inhibition at 10 µM: SN12C (Renal cancer), read-out: GI%; for GI50: SN12C, Renal cancer, five-dose
# Experimental: as §1
# [26] = tested on: SR; conditions: Homo sapiens; for inhibition at 10 µM: SR (Leukemia), read-out: GI%; for GI50: SR, Leukemia, five-dose
# Experimental: as §1
smiles,measurement,setting,value
"COc1cccc(C=NNC(=O)c2ccc3[nH]c(-c4ccccc4)nc3c2)c1O [8d, N'-(2-hydroxy-3-methoxybenzylidene)-2-phenyl-1H-benzo[d]imidazole-5-carbohydrazide]",inhibition at 10 µM,[1],79.8%
same,GI50,[1],3.39 µM
same,inhibition at 10 µM,[2],83.3%
same,GI50,[2],2.28 µM
same,inhibition at 10 µM,[3],96.6%
same,GI50,[3],1.52 µM
same,inhibition at 10 µM,[4],91.6%
same,GI50,[4],2680 nM
same,inhibition at 10 µM,[5],> 100%
same,GI50,[5],0.3 µM
same,GI50,[6],2.34 µM
same,inhibition at 10 µM,[7],79.7%
same,GI50,[7],3.05 µM
same,inhibition at 10 µM,[8],87.6%
same,GI50,[8],1860 nM
same,inhibition at 10 µM,[9],84.5%
same,GI50,[9],3.41 µM
same,inhibition at 10 µM,[10],79.9%
same,GI50,[10],2340 nM
same,inhibition at 10 µM,[11],60.9%
same,GI50,[11],2.04 µM
same,inhibition at 10 µM,[12],92.9%
same,GI50,[12],1340 nM
same,inhibition at 10 µM,[13],> 100%
same,GI50,[13],1570 nM
same,inhibition at 10 µM,[14],74.6%
same,GI50,[14],4.69 µM
same,inhibition at 10 µM,[15],88%
same,GI50,[15],1410 nM
same,inhibition at 10 µM,[16],86.4%
same,GI50,[16],2630 nM
same,inhibition at 10 µM,[17],> 100%
same,GI50,[17],1970 nM
same,inhibition at 10 µM,[18],48%
same,GI50,[18],4.65 µM
same,inhibition at 10 µM,[19],> 100%
same,GI50,[19],420 nM
same,inhibition at 10 µM,[20],> 100%
same,GI50,[20],1850 nM
same,inhibition at 10 µM,[21],> 100%
same,GI50,[21],1620 nM
same,inhibition at 10 µM,[22],83.2%
same,GI50,[22],2930 nM
same,inhibition at 10 µM,[23],34.3%
same,GI50,[23],1.64 µM
same,GI50,[24],2.56 µM
same,inhibition at 10 µM,[25],91.5%
same,GI50,[25],2080 nM
same,inhibition at 10 µM,[26],77%
same,GI50,[26],1.8 µM
"COc1ccc(-c2nc3cc(C(=O)NN=Cc4cccc(OC)c4)ccc3[nH]2)cc1 [8j, N'-(3-Methoxybenzylidene)-2-(4-methoxyphenyl)-1H-benzo[d]imidazole-5-carbohydrazide]",inhibition at 10 µM,[1],> 100%
same,GI50,[1],3.05 µM
same,inhibition at 10 µM,[2],> 100%
same,GI50,[2],4.25 µM
same,inhibition at 10 µM,[3],29.8%
same,GI50,[3],5.47 µM
same,inhibition at 10 µM,[4],85.3%
same,GI50,[4],2810 nM
same,inhibition at 10 µM,[5],35%
same,GI50,[5],7.91 µM
same,inhibition at 10 µM,[6],> 100%
same,GI50,[6],4.3 µM
same,inhibition at 10 µM,[7],> 100%
same,GI50,[7],3.28 µM
same,inhibition at 10 µM,[8],> 100%
same,GI50,[8],2760 nM
same,inhibition at 10 µM,[9],> 100%
same,GI50,[9],2.8 µM
same,inhibition at 10 µM,[10],> 100%
same,GI50,[10],3490 nM
same,inhibition at 10 µM,[11],88.1%
same,GI50,[11],6.92 µM
same,inhibition at 10 µM,[12],> 100%
same,GI50,[12],1980 nM
same,inhibition at 10 µM,[13],70.4%
same,GI50,[13],3420 nM
same,inhibition at 10 µM,[14],76.5%
same,GI50,[14],6.25 µM
same,inhibition at 10 µM,[15],> 100%
same,GI50,[15],3030 nM
same,inhibition at 10 µM,[16],> 100%
same,GI50,[16],1850 nM
same,inhibition at 10 µM,[17],89.7%
same,GI50,[17],3300 nM
same,inhibition at 10 µM,[18],32%
same,GI50,[18],6.35 µM
same,inhibition at 10 µM,[19],> 100%
same,GI50,[19],2050 nM
same,inhibition at 10 µM,[20],> 100%
same,GI50,[20],2010 nM
same,inhibition at 10 µM,[21],> 100%
same,GI50,[21],1920 nM
same,inhibition at 10 µM,[22],167%
same,GI50,[22],2930 nM
same,inhibition at 10 µM,[23],81%
same,GI50,[23],10.6 µM
same,inhibition at 10 µM,[24],68.3%
same,GI50,[24],5.39 µM
same,GI50,[25],2780 nM
same,inhibition at 10 µM,[26],92.7%
same,GI50,[26],10.6 µM
"COc1ccc(-c2nc3cc(C(=O)NN=Cc4cc(OC)c(OC)c(OC)c4)ccc3[nH]2)cc1 [8n, 2-(4-Methoxyphenyl)-N'-(3,4,5-trimethoxybenzylidene)-1H-benzo[d]imidazole-5-carbohydrazide]",inhibition at 10 µM,[1],< 5%
same,inhibition at 10 µM,[2],9.17%
same,inhibition at 10 µM,[3],< 5%
same,inhibition at 10 µM,[4],23.8%
same,inhibition at 10 µM,[5],38.8%
same,inhibition at 10 µM,[6],33.7%
same,inhibition at 10 µM,[7],< 5%
same,inhibition at 10 µM,[8],< 5%
same,inhibition at 10 µM,[10],< 5%
same,inhibition at 10 µM,[11],23.7%
same,inhibition at 10 µM,[12],7.53%
same,inhibition at 10 µM,[13],40.3%
same,inhibition at 10 µM,[14],25%
same,inhibition at 10 µM,[15],< 5%
same,inhibition at 10 µM,[16],< 5%
same,inhibition at 10 µM,[17],96.2%
same,inhibition at 10 µM,[18],< 5%
same,inhibition at 10 µM,[19],< 5%
same,inhibition at 10 µM,[20],< 5%
same,inhibition at 10 µM,[21],15%
same,inhibition at 10 µM,[22],29.8%
same,inhibition at 10 µM,[24],20.2%
same,inhibition at 10 µM,[25],9.66%
same,inhibition at 10 µM,[26],26.9%
